According to ChEMBL document CHEMBL5543131, “Discovery of Highly Potent Solute Carrier 13 Member 5 (SLC13A5) Inhibitors for the Treatment of Hyperlipidemia” (J Med Chem, 2024):
Active and inactive are the calls of the source.

Columns and labels:
AML12 [1] = assay: Effect on lipid accumulation in oleic and palmitic acid induced mouse AML12 cells assessed as decrease in triglyceride level; type: functional, cell-based; conditions: dose 3-30 µM
[2] = biological target: Na(+)/citrate cotransporter (Homo sapiens) (UniProt Q86YT5); assay: Potency index, ratio of citrate Km to test compound Km for binding affinity to SLC13A5 (unknown origin)
Na(+)/citrate cotransporter (Homo sapiens), sequence (Q86YT5 whole entry, looked up): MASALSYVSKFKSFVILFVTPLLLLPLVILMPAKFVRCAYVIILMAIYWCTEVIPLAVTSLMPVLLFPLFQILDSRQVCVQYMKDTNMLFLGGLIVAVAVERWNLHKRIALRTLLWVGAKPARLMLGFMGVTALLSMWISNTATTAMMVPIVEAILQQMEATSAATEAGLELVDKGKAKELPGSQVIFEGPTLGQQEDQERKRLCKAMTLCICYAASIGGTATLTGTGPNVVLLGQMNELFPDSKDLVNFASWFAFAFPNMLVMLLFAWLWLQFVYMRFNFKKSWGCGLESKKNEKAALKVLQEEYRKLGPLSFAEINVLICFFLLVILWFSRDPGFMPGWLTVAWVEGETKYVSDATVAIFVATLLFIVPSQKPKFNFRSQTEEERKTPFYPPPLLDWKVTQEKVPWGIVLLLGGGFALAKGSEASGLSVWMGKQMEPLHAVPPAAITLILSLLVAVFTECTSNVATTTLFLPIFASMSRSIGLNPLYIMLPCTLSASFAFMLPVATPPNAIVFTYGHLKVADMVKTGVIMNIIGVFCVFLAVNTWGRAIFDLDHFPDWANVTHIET

[3] = biological target: Na(+)/citrate cotransporter (Homo sapiens) (UniProt Q86YT5); assay: Competitive inhibition of SLC13A5 (unknown origin) assessed as increase in Km with constant Vmax upto 50 uM
AML12 [4] = assay: Downregulation of ACLY mRNA expression in oleic and palmitic acid induced mouse AML12 cells by RT-qPCR analysis; type: functional, cell-based; conditions: dose 3-30 µM
AML12 [5] = assay: Effect on SCL13A5 mRNA expression in oleic acid and palmitic acid induced mouse AML12 cells at 3 to 30 uM by RT-qPCR analysis; type: functional, cell-based; conditions: dose 3-30 µM
AML12 [6] = assay: Lipid lowering effect on PCN-induced lipid accumulation in mouse AML12 cells assessed as decrease in triglyceride level preincubated with compound for 30 mins followed by PCN addition and measured after 24 hrs; type: functional, cell-based; conditions: dose 3-30 µM, time 24.5 hrs
AML12 [7] = assay: Lipid lowering effect on PCN-induced lipid accumulation in mouse AML12 cells assessed as decrease in total cholesterol level preincubated with compound for 30 mins followed by PCN addition and measured after 24 hrs; type: functional, cell-based; conditions: dose 3-30 µM, time 24.5 hrs
AML12 [8] = assay: Lipid lowering effect on PCN-induced lipid accumulation in mouse AML12 cells assessed as decrease in ACC1 mRNA expression level at 3 to 30 uM preincubated with compound for 30 mins followed by PCN addition and measured after 24 hrs by RT-qPCR analysis; type: functional, cell-based; conditions: dose 3-30 µM, time 24.5 hrs
AML12 [9] = assay: Lipid lowering effect on PCN-induced lipid accumulation in mouse AML12 cells assessed as decrease in FASN mRNA expression level at 3 to 30 uM preincubated with compound for 30 mins followed by PCN addition and measured after 24 hrs by RT-qPCR analysis; type: functional, cell-based; conditions: dose 3-30 µM, time 24.5 hrs
AML12 [10] = assay: Effect on SCL13A5 mRNA expression in PCN-induced mouse AML12 cells at 3 to 30 uM preincubated with compound for 30 mins followed by PCN addition and measured after 24 hrs by RT-qPCR analysis; type: functional, cell-based; conditions: dose 3-30 µM, time 24.5 hrs
AML12 [11] = assay: Lipid lowering effect on PCN-induced lipid accumulation in mouse AML12 cells assessed as decrease in ACLY mRNA expression level at 3 to 30 uM preincubated with compound for 30 mins followed by PCN addition and measured after 24 hrs by RT-qPCR analysis; type: functional, cell-based; conditions: dose 3-30 µM, time 24.5 hrs
Hepatocyte [12] = assay: Lipid lowering effect on PCN-induced lipid accumulation in mouse Primary hepatocyte assessed as decrease in intracellular triglyceride level; type: functional, cell-based; conditions: dose 3-30 µM
Hepatocyte [13] = assay: Lipid lowering effect on PCN-induced lipid accumulation in mouse Primary hepatocyte assessed as decrease in ACLY mRNA expression level at 3 to 30 uM by RT-qPCR analysis; type: functional, cell-based; conditions: dose 3-30 µM
HepG2 [14] = assay: Lipid lowering effect on oleic and palmitic acid induced lipid accumulation in human HepG2 cells assessed as decrease in intracellular triglyceride level; type: functional, cell-based; conditions: dose 3-30 µM
HepG2 [15] = assay: Lipid lowering effect on oleic and palmitic acid induced lipid accumulation in human HepG2 cells assessed as decrease in intracellular total cholesterol level; type: functional, cell-based; conditions: dose 3-30 µM
HepG2 [16] = assay: Lipid lowering effect on PCN-induced lipid accumulation in human HepG2 cells assessed as decrease in intracellular total cholesterol level; type: functional, cell-based; conditions: dose 3-30 µM
HepG2 [17] = assay: Lipid lowering effect on PCN-induced lipid accumulation in human HepG2 cells assessed as decrease in ACLY mRNA expression level at 3 to 30 uM by RT-qPCR analysis; type: functional, cell-based; conditions: dose 3-30 µM
HepG2 [18] = assay: Lipid lowering effect on PCN-induced lipid accumulation in human HepG2 cells assessed as decrease in HMGCR mRNA expression level at 3 to 30 uM by RT-qPCR analysis; type: functional, cell-based; conditions: dose 3-30 µM
Mus musculus [19] = assay: Lipid lowering activity in starvation-induced hyperlipidemic male C57BL/6J mouse model assessed as decrease in triglyceride level in liver at 10 to 30 mg/kg, ip starved for 48 hrs followed by compound administration and measured after 2 hrs; type: functional, organism-based; conditions: dose 10-30 mg/kg
Mus musculus [20] = assay: Lipid lowering activity in starvation-induced hyperlipidemic male C57BL/6J mouse model assessed as decrease in NEFA level in plasma at 10 to 30 mg/kg, ip starved for 48 hrs followed by compound administration and measured after 2 hrs; type: functional, organism-based; conditions: dose 10-30 mg/kg
Mus musculus [21] = assay: Lipid lowering activity in starvation-induced hyperlipidemic male C57BL/6J mouse model assessed as downregulation of ACLY gene expression level starved for 48 hrs followed by oral administration of compound and measured after 2 hrs by RT-qPCR analysis; type: functional, organism-based; conditions: dose 10-30 mg/kg
Mus musculus [22] = assay: Lipid lowering activity in starvation-induced hyperlipidemic male C57BL/6J mouse model assessed as decrease in LDL to HDL cholesterol ratio at 10 to 30 mg/kg, po starved for 48 hrs followed by compound administration and measured after 2 hrs; type: functional, organism-based; conditions: dose 10-30 mg/kg
Mus musculus [23] = assay: Lipid lowering activity in PCN-induced hyperlipidemic male C57BL/6J mouse model assessed as decrease in plasma triglyceride level at 10 to 30 mg/kg, IG preadministered with compound for 15 to 30 mins followed by PCN administration and measured after 7 days; type: functional, organism-based; conditions: dose 10-30 mg/kg, time 15-10110 min
Mus musculus [24] = assay: Lipid lowering activity in PCN-induced hyperlipidemic male C57BL/6J mouse model assessed as decrease in liver triglyceride level at 10 to 30 mg/kg, IG preadministered with compound for 15 to 30 mins followed by PCN administration and measured after 7 days; type: functional, organism-based; conditions: dose 10-30 mg/kg, time 15-10110 min
Mus musculus [25] = assay: Lipid lowering activity in PCN-induced hyperlipidemic male C57BL/6J mouse model assessed as decrease in liver total cholesterol level at 10 to 30 mg/kg, IG preadministered with compound for 15 to 30 mins followed by PCN administration and measured after 7 days; type: functional, organism-based; conditions: dose 10-30 mg/kg, time 15-10110 min
Mus musculus [26] = assay: Lipid lowering activity in PCN-induced hyperlipidemic male C57BL/6J mouse model assessed as decrease in ACC1 mRNA expression level preadministered intragastrically with compound for 15 to 30 mins followed by PCN administration and measured after 7 days by RT-qPCR analysis; type: functional, organism-based; conditions: dose 10-30 mg/kg, route ig, time 15-10110 min
Mus musculus [27] = assay: Lipid lowering activity in PCN-induced hyperlipidemic male C57BL/6J mouse model assessed as decrease in HMGCR mRNA expression level preadministered intragastrically with compound for 15 to 30 mins followed by PCN administration and measured after 7 days by RT-qPCR analysis; type: functional, organism-based; conditions: dose 10-30 mg/kg, route ig, time 15-10110 min
Mus musculus [28] = assay: Lipid lowering activity in starvation-induced hyperlipidemic male C57BL/6J mouse model assessed as decrease in number of lipid droplets in liver starved for 48 hrs followed by intraperitoneal administration of compound and measured after 2 hrs by Hematoxylin and eosin staining based analysis; type: functional, organism-based; conditions: dose 10-30 mg/kg, route ip
Mus musculus [29] = assay: Lipid lowering activity in starvation-induced hyperlipidemic male C57BL/6J mouse model assessed as decrease in size of lipid droplets in liver starved for 48 hrs followed by intraperitoneal administration of compound and measured after 2 hrs by Hematoxylin and eosin staining based analysis; type: functional, organism-based; conditions: dose 10-30 mg/kg, route ip
Mus musculus [30] = assay: Lipid lowering activity in PCN-induced hyperlipidemic male C57BL/6J mouse model assessed as decrease in lipid accumulation in liver at 30 mg/kg, IG preadministered with compound for 15 to 30 mins followed by PCN administration and measured after 7 days by H&E staining based analysis; type: functional, organism-based; conditions: time 15-10110 min

O=C(O)CC(O)(CCc1ccc(-c2ccccc2)cc1)C(=O)O (stereo not given)
inactive: Activity (AML12 [5]) | Activity (AML12 [10])
2: Ratio [2]
active: Activity (AML12 [1]) Dose-Dependent Effect | inhibition [3] | Activity (AML12 [4]) Dose-Dependent Effect | Activity (AML12 [6]) Dose-Dependent Effect | Activity (AML12 [7]) Dose-Dependent Effect | Activity (AML12 [8]) | Activity (AML12 [9]) | Activity (AML12 [11]) | Activity (Hepatocyte [12]) Dose-Dependent Effect | Activity (Hepatocyte [13]) | Activity (HepG2 [14]) Dose-Dependent Effect | Activity (HepG2 [15]) Dose-Dependent Effect | Activity (HepG2 [16]) Dose-Dependent Effect | Activity (HepG2 [17]) | Activity (HepG2 [18]) | Activity (Mus musculus [19]) | Activity (Mus musculus [20]) | Activity (Mus musculus [21]) Dose-Dependent Effect | Activity (Mus musculus [22]) | Activity (Mus musculus [23]) | Activity (Mus musculus [24]) | Activity (Mus musculus [25]) | Activity (Mus musculus [26]) Dose-Dependent Effect | Activity (Mus musculus [27]) Dose-Dependent Effect | Activity (Mus musculus [28]) Dose-Dependent Effect | Activity (Mus musculus [29]) Dose-Dependent Effect | Activity (Mus musculus [30])
